Measured values from ChEMBL document CHEMBL1151129, “Two new bioactive carbazole alkaloids from the root bark of Clausena harmandiana” (J Nat Prod, 1988).
Converted amounts (≈) assume the structure as drawn.

Legend:
Artemia = assay: Toxicity to brine shrimp; type: organism-based; details: in vivo
[1] = Cytotoxicity against mouse 9PS cells; type: functional; details: read-out: ED50 (the source's name)
[2] = Cytotoxicity against human 9KB cells; type: functional; details: read-out: ED50 (the source's name)
HT-29 = assay: Cytotoxicity against human HT-29 cells; type: functional; details: read-out: ED50 (the source's name)
A549 = assay: Cytotoxicity against human A549 cells; type: functional; details: read-out: ED50 (the source's name)
[3] = Cytotoxicity against human KBMRI cells; type: functional; details: read-out: ED50 (the source's name)

In the case of COc1ccc2c(c1)[nH]c1c(CC=C(C)C)c(O)c(C=O)cc12, the LC50 (Artemia) is reported as greater than 500 ppm, the EC50 [1] is reported as greater than 10 µg/mL and the EC50 [2] is reported as 3.01 µg/mL (≈ 9.73 µM). The EC50 (HT-29) was 1.36 µg/mL (≈ 4.4 µM), the EC50 (A549) was 2.16 µg/mL (≈ 6.98 µM) and the EC50 [3] was 2.87 µg/mL (≈ 9.28 µM).
COc1ccc2c(c1)[nH]c1cc(O)c(C=O)cc12 gave an LC50 (Artemia) of 35 ppm, an EC50 [1] greater than 10 µg/mL and an EC50 [2] of 5.7 µg/mL (≈ 23.6 µM). For the same compound, the EC50 (HT-29) was 4 µg/mL (≈ 16.6 µM), the EC50 (A549) was 2.74 µg/mL (≈ 11.4 µM) and the EC50 [3] was 4.48 µg/mL (≈ 18.6 µM).
